Molecules are shown by their SMILES.

The subject of one assay is BxPC3. Briefly: XTT viability assay, BxPC3. As to conditions: Homo sapiens, BXPC-3, Pancreatic Cancer. The class given is cell-based. An excerpt:
(§1) Cells and culture conditions. Primary astrocytes (Lonza, Walkersville, Md.; ABM™ Basal Media with AGM™ SingleQuots™ Supplement Pack), fibroblast (ATCC; Fibroblast Basal Medium (ATCC© PCS-201-030™) with Fibroblast Growth Kit-Serum-free (ATCC© PCS-201-040™)), airway epithelial cell (ATCC; Airway Epithelial Cell Basal Medium (ATCC© PCS-300-030™) with Bronchial Epithelial Cell Growth Kit (ATCC© PCS-300-040™)), renal proximal tubule (ATCC; Renal Epithelial Cell Basal Medium (ATCC© PCS-400-030™) with Renal Epithelial Cell Growth Kit (ATCC© PCS-400-040™)), prostate epithelial cell (Lonza; PrEGM™ BulletKit™) and mammary epithelial cell (Lonza; MEBM™ BulletKit™) were kept in a humidified incubator at 37° C. adjusted to 5% CO2. […]
(§2) XTT assay. […] Cell viability was measured using the R&D Systemsm TACS XTT Cell Proliferation/Viability Assay (R&D Systems, Minneapolis, Minn.).

The next assay has as its system SK-HEP-1. Kind of assay: XTT viability assay, SK-HEP-1. The format is cell-based. As to conditions: Homo sapiens, SK-HEP1; Liver Cancer, SK-HEP-1, XTT.
From the text: as §1, §2
In general terms: Formazan colour is commonly taken as a measure of viable cells.

The next assay has as its system SNU-475. Kind of assay: XTT viability assay, SNU-475. The class given is cell-based. Particulars: Homo sapiens; Liver Cancer, SNU-475, XTT.
From the text: as §1, §2

For a further assay, the system named is SCC-25. Kind of assay: XTT viability assay, SCC-25. The class given is cell-based. Particulars: Homo sapiens; Head and Neck Cancer, SCC-25, XTT.
From the text: as §1, §2

Assay [1] relates to PC3 prostate cancer cells expressing firefly luciferase. Briefly: Experimental metastatic prostate cancer mouse model (PC3/ML/fluc, tail vein). Particulars: for Median survival time: i.p. once daily for 30 days; for tumor cells by bioluminescence imaging: 1 mg/kg daily for 30 days. The format is in vivo. How it is done:
In vivo tumor xenograft assay. Animal experiments were performed following the protocols approved by the Johns Hopkins University Animal Care and Use Committee. The experimental murine model of human prostate cancer metastasis used in this study was generated as previously described. (Bhatnagar et al. (2014) Cancer Res. 74:5772-81) Briefly, four-to six-week-old, male NOD/SCID/IL2R^γnull (NSG, purchased from Animal Resources Core, JHU) were injected with a million PC3/ML/fluc cells via tail vein. Tumor formation was confirmed by bioluminescence imaging (BLI) using the IVIS Spectrum Imaging System (Caliper Life Sciences, Hopkinton, Mass.) three weeks after injection and the mice were given indicated doses of drug once daily (intraperitoneal injection) for 30 days. Tumor progression was then monitored weekly by BLI and survival monitored concurrently.

The subject of another assay is SK-Mel-1. Kind of assay: XTT viability assay, SK-Mel-1. The format is cell-based. Particulars: Homo sapiens; Melanoma, SK-Mel-1, XTT.
From the text: as §1, §2

Another assay has as its system Astrocyte. Kind of assay: XTT viability assay, primary astrocytes. The class given is cell-based. Particulars: Homo sapiens, Primary normal cells.
From the text: as §1, §2

Another assay concerns CfPAC-1. Kind of assay: XTT viability assay, CfPAC-1. The format is cell-based. As to conditions: Homo sapiens; Pancreatic Cancer, CfPAC-1, XTT.
From the text: as §1, §2

Another assay has as its system DU-145. Briefly: XTT viability assay, DU-145. The format is cell-based. As to conditions: Homo sapiens; Prostate Cancer, DU-145, XTT.
From the text: as §1, §2

The next assay concerns NCI-H1299. Briefly: XTT viability assay, NCI-H1299. As to conditions: Homo sapiens, Lung Cancer. The class given is cell-based.
From the text: as §1, §2

In the next assay the test system is SW1990. Briefly: XTT viability assay, SW1990. Particulars: Homo sapiens, Pancreatic Cancer. The class given is cell-based.
From the text: as §1, §2

The next assay relates to HEK 293T cells. Kind of assay: HEK293T cell proliferation assay ([3H]-thymidine incorporation). As to conditions: for IC50: Homo sapiens, HEK-293T, 24 h, read-out: IC50 ± SEM. The format is cell-based, human. An excerpt:
Cells and culture conditions. Primary astrocytes (Lonza, Walkersville, Md.; ABM™ Basal Media with AGM™ SingleQuots™ Supplement Pack), fibroblast (ATCC; Fibroblast Basal Medium (ATCC© PCS-201-030™) with Fibroblast Growth Kit-Serum-free (ATCC© PCS-201-040™)), airway epithelial cell (ATCC; Airway Epithelial Cell Basal Medium (ATCC© PCS-300-030™) with Bronchial Epithelial Cell Growth Kit (ATCC© PCS-300-040™)), renal proximal tubule (ATCC; Renal Epithelial Cell Basal Medium (ATCC© PCS-400-030™) with Renal Epithelial Cell Growth Kit (ATCC© PCS-400-040™)), prostate epithelial cell (Lonza; PrEGM™ BulletKit™) and mammary epithelial cell (Lonza; MEBM™ BulletKit™) were kept in a humidified incubator at 37° C. adjusted to 5% CO2. Prostate (PC3, LNCaP, DU-145), breast (MDA-MB-231, MDA-MB-453, SK-BR-3), head and neck (A253, Detroit 562, SCC-25), melanoma (SK-Mel-3, SK-Mel-1, RPMI-7951), pancreatic (CfPAC-1, BxPC3, SW1990), lung (A549, NCI-H1299, NCI-H1437) and liver (SNU-475, SK-HEP-1, SNU-387) cancer cell lines were obtained from ATCC and cultured in their respective media (prostate cells: RPMI-1640, MDA-MB-231: RPMI-1640, MDA-MB-453: Leibovitz's L-15, SK-BR-3: McCoy's 5a, A253: McCoy's 5a, Detroit 562: EMEM, SCC-25: DMEM, SK-Mel-3: McCoy's 5a, SK-Mel-1: EMEM, RPMI-7951: EMEM), CfPAC-1: IMDM, BxPC3: RPMI-1640, SW1990: Leibovitz's L-15), A549: F-12K, NCI-H1299: RPMI-1640, NCI-H1437: RPMI-1640, SNU-475: RPMI-1640, SK-HEP-1: EMEM, SNU-387: RPMI-1640. All media were supplemented with 10% (vol/vol) filtered fetal bovine serum (FBS, Invitrogen, Carlsbad, Calif.), 1% penicillin/streptomycin (Invitrogen) and maintained in a humidified incubator at 37° C. with 5% CO2 except for MDA-MB-453 and SW1990 grown at 37° C. without CO2 control. Wild type (ATCC) and C342T XPB knock-in cells (named T7115) of Human Embryonic Kidney 293T (HEK293T), HeLa (ATCC) were cultured in DMEM (GIBCO) with 10% (vol/vol) filtered fetal bovine serum (FBS, Invitrogen, Carlsbad, Calif.), 1% penicillin/streptomycin (Invitrogen).
Proliferation and viability assays. [^3H]-thymidine incorporation. HEK293T cells (10,000 cells/well) were seeded into 96-well plates then cultured in DMEM plus 10% FBS and 1% penicillin/streptomycin at 37° C. with 5% CO2 overnight. Drugs were added at indicated concentrations and incubation was continued for an additional 24 h. For hypoxia, PC3 (5,000 cells/well) were exposed to 1% O2 (Airgas) in a humidified hypoxia chamber (Billups-Rothenberg) in 37° C. for 48 h prior to drug exposure for 48 h. Treated cells were then pulsed using an aliquot of 1 μCi of [^3H]-thymidine (Perkin Elmer) per well for an additional 6 h. Radiolabelled cells were harvested onto a printed Filtermat A glass fiber filter (Perkin Elmer) using a Tomtec Harvester 96 Mach III M. Betaplate Scint (Perkin Elmer) scintillation fluid was added to radiolabelled filters followed by scintillation counting on Microbeta2 LumiJET Microplate Counter (Perkin Elmer).
In general terms: Incorporation of labelled thymidine or its analogues reports DNA synthesis.

In the next assay the test system is MDA-MB-231. Kind of assay: XTT viability assay, MDA-MB-231. The class given is cell-based. Particulars: Homo sapiens; Breast Cancer, MDA-MB-231, XTT.
From the text: as §1, §2

Where [2] appears, read: 1 mg/kg, days after initiation of treatment.

As to `CC(C)[C@]12O[C@H]1[C@@H]1O[C@]13[C@]1(O[C@H]1C[C@H]1C4=C(CC[C@@]13C)C(=O)OC4)[C@@H]2OC(=O)CCCO[C@@H]1OC(CO)[C@@H](O)C(O)C1O` (stereo in doubt) [Compound 1], the concentration for half-maximal inhibition (IC50) was 5 ± 2.83 µM in the assay with BxPC3; 5.9 ± 0.28 µM in the assay on SK-HEP-1; 4.6 ± 4.55 µM in the assay on SNU-475; 1630 ± 780 nM in the assay on SCC-25; 3440 nM with SK-Mel-1; 10.9 ± 9.66 µM in the assay with Astrocyte. Also, the IC50 in the assay on CfPAC-1 amounted to 470 ± 320 nM; in the assay on DU-145 it was 440 ± 190 nM; in the assay on NCI-H1299, 11.5 ± 5.51 µM; with SW1990, 6.48 ± 2.79 µM; in the assay on HEK 293T cells it was 71 nM; in the assay on MDA-MB-231 it was 260 ± 100 nM. For the same molecule, the Median survival time in assay [1] (0.25 mg/kg) is given as 46 days; in assay [1] (0.5 mg/kg), 76 days; in assay [1] (setting [2]), 84 days. In addition, the “tumor cells by bioluminescence imaging” value in assay [1] is listed as “undetectable levels of cancer cells two weeks after cessation of treatment”. The molecule also gave a longest survival in [1] (1 mg/kg treatment group, versus 26 days for untreated group) of 86 days. In addition, in the assay with HEK 293T cells (in vitro), the “fold more potent against cancer cells in vitro than compound 10” value stood at 4 fold.
`CC(C)[C@]12O[C@H]1[C@@H]1O[C@]13[C@]1(O[C@H]1C[C@H]1C4=C(CC[C@@]13C)C(=O)OC4)[C@@H]2OC(=O)CCC(=O)O[C@@H]1OC(CO)[C@@H](O)C(O)C1O` (some centres unmarked) [Compound 10]: the IC50 with BxPC3 is 4.15 ± 0.18 µM; with SK-HEP-1 it was 3.38 ± 0.71 µM; with SNU-475 it was 3.85 ± 3.26 µM; in the assay with SCC-25, 1260 ± 990 nM; with SK-Mel-1 it was 1290 nM; with Astrocyte, 5.31 ± 4.29 µM. In addition, the IC50 in the assay with CfPAC-1 amounted to 510 ± 350 nM; in the assay on DU-145 it was 400 ± 130 nM; with NCI-H1299, 6.4 ± 2.43 µM; in the assay with SW1990, 1.52 ± 0.33 µM; with HEK 293T cells, 279 ± 0.611 nM; in the assay with MDA-MB-231 it was 280 ± 10 nM. Besides, the “tumor cells by bioluminescence imaging” value in assay [1] was “tumor cells were cleared by week 2 of treatment”. Besides, the Median survival time in assay [1] (setting [2]) is 76 days.

The term IC50 denotes the concentration needed to halve the response being measured.

The record behind these values is patent publication US20230134986A1, “GLUCOSE TRIPTOLIDE CONJUGATES AND USES THEREOF” (The Johns Hopkins University, priority 2020, published 2023).
